From PubChem BioAssay AID192 (DTP/NCI, 2004)
“And” between values parts separate entries of the source, which are not always exact repeats. Equal entries are not always repeated. Inconclusive results and toxic doses are left out. How the source made its calls: active means survival T/C of 150% or more; inactive means T/C below 125% in these data.

Test system: BDF1 mice, B16 melanoma ip, median survival T/C
Assay: NCI In Vivo Anticancer Drug Screen. Data for tumor model B16 Melanoma (intraperitoneal) in B6D2F1 (BDF1) mice
Settings: endpoint: median survival time, higher = longer survival
Method in brief: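 The ratio T/C compares compound-treated mice with vehicle-treated controls, using survival or tumor size as the endpoint in a transplantable tumor model.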

[1] = dose: 12.5 mg/kg/injection, schedule: Q01DX009 (ip), vehicle: saline
[2] = dose: 25.0 mg/kg/injection, schedule: Q01DX009 (ip), vehicle: saline
[3] = dose: 50.0 mg/kg/injection, schedule: Q01DX009 (ip), vehicle: saline
[4] = dose: 3.13 mg/kg/injection, schedule: Q01DX009 (ip), vehicle: saline with Tween-80
[5] = dose: 6.25 mg/kg/injection, schedule: Q01DX009 (ip), vehicle: saline with Tween-80
[6] = dose: 12.5 mg/kg/injection, schedule: Q01DX009 (ip), vehicle: saline with Tween-80
[7] = dose: 25.0 mg/kg/injection, schedule: Q01DX009 (ip), vehicle: saline with Tween-80
[8] = dose: 2.5 mg/kg/injection, schedule: Q01DX009 (ip), vehicle: saline
[9] = dose: 5.0 mg/kg/injection, schedule: Q01DX009 (ip), vehicle: saline
[10] = dose: 10.0 mg/kg/injection, schedule: Q01DX009 (ip), vehicle: saline
[11] = dose: 100.0 mg/kg/injection, schedule: Q01DX009 (ip), vehicle: Klucel (hydroxypropylcellulose) (HPC)
[12] = dose: 200.0 mg/kg/injection, schedule: Q01DX009 (ip), vehicle: Klucel (hydroxypropylcellulose) (HPC)
[13] = dose: 100.0 mg/kg/injection, schedule: Q01DX009 (ip), vehicle: saline
[14] = dose: 200.0 mg/kg/injection, schedule: Q01DX009 (ip), vehicle: saline
[15] = dose: 50.0 mg/kg/injection, schedule: Q01DX009 (ip), vehicle: saline with Tween-80
[16] = dose: 1.56 mg/kg/injection, schedule: Q01DX009 (ip), vehicle: saline with Tween-80
[17] = dose: 12.5 mg/kg/injection, schedule: Q01DX009 (ip), vehicle: Klucel (hydroxypropylcellulose) (HPC)
[18] = dose: 25.0 mg/kg/injection, schedule: Q01DX009 (ip), vehicle: Klucel (hydroxypropylcellulose) (HPC)
[19] = dose: 50.0 mg/kg/injection, schedule: Q01DX009 (ip), vehicle: Klucel (hydroxypropylcellulose) (HPC)

Measured: T/C

O=C(O)c1c(-c2ccccc2)[nH]c2cc(Cl)ccc2c1=O
inactive: [1] 100 % of control | [2] 102 % of control | [3] 102 % of control | dose: 100.0 mg/kg/injection, schedule: Q04DX003 (ip), vehicle: saline with Tween-80 109 % of control | dose: 200.0 mg/kg/injection, schedule: Q01DX005 (ip), vehicle: saline 95 % of control | dose: 200.0 mg/kg/injection, schedule: Q04DX003 (ip), vehicle: saline with Tween-80 102 % of control

CCc1cc2c(cc1C(=O)CBr)C(C)(C)CCC2(C)C
inactive: [4] 100 % of control | [5] 94 % of control | [6] 92 % of control and 99 % of control | [7] 94 % of control

CCNCc1cc(Nc2nc(NC3CCC(N(C)C)CC3)c3ccccc3n2)ccc1OC (stereo not given)
inactive: [8] 105 % of control | [9] 103 % of control | [10] 114 % of control | dose: 20.0 mg/kg/injection, schedule: Q01DX009 (ip), vehicle: saline 122 % of control | dose: 40.0 mg/kg/injection, schedule: Q01DX009 (ip), vehicle: saline 112 % of control

O=[N+]([O-])c1cccc(N=P(c2ccccc2)(c2ccccc2)c2ccccc2)c1
inactive: [11] 97 % of control | [12] 101 % of control | dose: 400.0 mg/kg/injection, schedule: Q01DX009 (ip), vehicle: Klucel (hydroxypropylcellulose) (HPC) 94 % of control

CCCCCC(C)(O)CCCCC
inactive: [13] 107 % of control | [14] 92 % of control

NC(=O)N/N=C1\CC2C=CCC12 (stereo not given)
inactive: [15] 105 % of control | dose: 100.0 mg/kg/injection, schedule: Q01DX009 (ip), vehicle: saline with Tween-80 97 % of control | dose: 200.0 mg/kg/injection, schedule: Q01DX009 (ip), vehicle: saline with Tween-80 101 % of control

COc1cc2c[n+](C)c3c4cc5c(cc4ccc3c2cc1OC)OCO5
inactive: dose: 5.0 mg/kg/injection, schedule: Q01DX009 (ip), vehicle: water 122 % of control | [6] 113 % of control | [7] 115 % of control | dose: 40.0 mg/kg/injection, schedule: Q01DX009 (ip), vehicle: water 120 % of control | [15] 97 % of control

CC(=O)C1=C(O)C2(O)C(=O)c3c(c(C)c4ccc(C)c(O)c4c3O)CC2C(N)C1=O (stereo not given)
inactive: [16] 100 % of control | [4] 95 % of control | dose: 3.75 mg/kg/injection, schedule: Q01DX009 (ip), vehicle: saline + alcohol 103 % of control | [5] 100 % of control | dose: 7.5 mg/kg/injection, schedule: Q01DX009 (ip), vehicle: saline + alcohol 105 % of control | dose: 15.0 mg/kg/injection, schedule: Q01DX009 (ip), vehicle: saline + alcohol 114 % of control

Nc1ccc(C(=O)O)c(O)c1
inactive: dose: 9.3 mg/kg/injection, schedule: Q01DX009 (ip), vehicle: saline with Tween-80 98 % of control | dose: 18.7 mg/kg/injection, schedule: Q01DX009 (ip), vehicle: saline with Tween-80 99 % of control | dose: 37.5 mg/kg/injection, schedule: Q01DX009 (ip), vehicle: saline with Tween-80 98 % of control | dose: 75.0 mg/kg/injection, schedule: Q01DX009 (ip), vehicle: saline with Tween-80 89 % of control

Oc1ccccc1O.[O-]c1ccccc1[O-].[O-]c1ccccc1[O-].[O]=[V+2]
inactive: [8] 88 % of control | [9] 91 % of control | [10] 97 % of control

O=C(O)CC(NC(=O)c1ccccc1)C(=O)O (stereo not given)
inactive: [5] 100 % of control | [6] 102 % of control | [7] 109 % of control | [15] 93 % of control and 100 % of control

COC(=O)C(=O)[C@@H](O)[C@H](O)[C@@H](O)CO
inactive: dose: 100.0 mg/kg/injection, schedule: Q04DX003 (ip), vehicle: Klucel (hydroxypropylcellulose) (HPC) 94 % of control | dose: 200.0 mg/kg/injection, schedule: Q04DX003 (ip), vehicle: Klucel (hydroxypropylcellulose) (HPC) 94 % of control | dose: 400.0 mg/kg/injection, schedule: Q04DX003 (ip), vehicle: Klucel (hydroxypropylcellulose) (HPC) 100 % of control

Clc1sc2ccccc2c1Cl
inactive: dose: 6.25 mg/kg/injection, schedule: Q01DX009 (ip), vehicle: Klucel (hydroxypropylcellulose) (HPC) 93 % of control | [17] 92 % of control | [18] 91 % of control | [19] 90 % of control

C=C1C(=O)OC2CC3(C)CC(O)C(O)C(=C)C3CC12 (stereo not given)
inactive: [19] 104 % of control | [11] 101 % of control

NNc1n[nH]c(=S)n1N
inactive: dose: 0.78 mg/kg/injection, schedule: Q01DX009 (ip), vehicle: saline with Tween-80 88 % of control | [16] 93 % of control | [4] 90 % of control | [5] 86 % of control

C=CCc1ccccc1OC
inactive: [2] 116 % of control | [3] 109 % of control | [13] 106 % of control

CCCCCCCCCCCCCCCCC(C(=O)O)C(O)(CC(=O)O)C(=O)O (stereo not given)
inactive: [17] 101 % of control | [18] 90 % of control

Cc1cnc2c(NC(=O)CCl)nn(C)c2n1
inactive: [19] 103 % of control | [11] 101 % of control

Cc1cccc(C)c1C1=NCCN1
inactive: [6] 95 % of control | [7] 95 % of control | [15] 93 % of control

COc1ccc(/C=C/c2nc3ccccc3nc2/C=C/c2ccc(OC)c(OC)c2)cc1OC
inactive: dose: 6.25 mg/kg/injection, schedule: Q01DX009 (ip), vehicle: carboxymethylcellulose (CMC) 99 % of control | dose: 12.5 mg/kg/injection, schedule: Q01DX009 (ip), vehicle: carboxymethylcellulose (CMC) 92 % of control | dose: 25.0 mg/kg/injection, schedule: Q01DX009 (ip), vehicle: carboxymethylcellulose (CMC) 89 % of control

Cc1cc(C)c(NC(=O)Nc2ccc(Cl)cc2)c(C)c1
inactive: [11] 93 % of control | [12] 93 % of control

CC(C)=CN1CCOCC1
inactive: [18] 94 % of control | [19] 100 % of control | [11] 94 % of control

C/C=C\C(C)=C/C(C)C(=O)CC(O)CC1CC(=O)NC(=O)C1 (stereo not given)
inactive: dose: 3.12 mg/kg/injection, schedule: Q01DX009 (ip), vehicle: DMSO 95 % of control | dose: 6.25 mg/kg/injection, schedule: Q01DX009 (ip), vehicle: DMSO 119 % of control | dose: 12.5 mg/kg/injection, schedule: Q01DX009 (ip), vehicle: DMSO 103 % of control | dose: 25.0 mg/kg/injection, schedule: Q01DX009 (ip), vehicle: DMSO 96 % of control

O=C(O)C(Cl)Cc1cnc[nH]1 (stereo not given)
inactive: [3] 111 % of control | [13] 111 % of control | [14] 112 % of control

C[C@]12CC[C@@H]3c4ccc(Oc5nc(N6CC6)nc(N6CC6)n5)cc4CC[C@H]3[C@@H]1CCC2=O
inactive: dose: 3.13 mg/kg/injection, schedule: Q01DX009 (ip), vehicle: saline 104 % of control | dose: 6.25 mg/kg/injection, schedule: Q01DX009 (ip), vehicle: saline 113 % of control | dose: 6.25 mg/kg/injection, schedule: Q04DX003 (ip), vehicle: saline 97 % of control | [1] 104 % of control | dose: 12.5 mg/kg/injection, schedule: Q04DX003 (ip), vehicle: saline 97 % of control | dose: 25.0 mg/kg/injection, schedule: Q04DX003 (ip), vehicle: saline 102 % of control | dose: 50.0 mg/kg/injection, schedule: Q04DX003 (ip), vehicle: saline 97 % of control
